In PubChem BioAssay AID2060338 (Molecular Pharmacology Branch, DTP, NCI, 2025):

System: 556581-035-R-J1-PDC spheroids with HUVEC/MSC, viability
Test: Anticancer human tumor 556581-035-R-J1-PDC patient-derived ovarian carcinoma cell line growth inhibition [IpAb]
Conditions: for IC50: curve of first compound; for viability, T/C: stronger effect = lower value
Excerpt: Combinatorial screen of targeted agents with ipatasertib and abemaciclib in multi-cell type tumor spheroids
A high-throughput screen of multi-cell type tumor spheroids was designed to identify active combinations of targeted small molecules and ipatasertib or abemaciclib. Complex spheroids include a stromal component modeled by human endothelial cells (HUVEC) and fibroblasts modeled by human mesenchymal stem cells (MSCs). The concentration ranges selected for each drug and investigational agent were based upon clinically achievable concentrations if the clinical Cmax of the agent was known.
Compounds. The drugs and investigational agents: ipatasertib (NSC767898), abemaciclib(NSC768073), selumetinib (NSC741078), trametinib (758246), adavosertib (NSC754352), everolimus (NSC733504), sapanisertib (NSC764658), vemurafenib (NSC761431), venetoclax (NSC766270), copanlisib (NSC809693), apelisib (NSC765974), palbociblib (NSC758247), vemurafenib (NSC761431), dabrafenib (NSC764134), ravoxertinib (NSC781343), BMS-387032 (NSC767048), sotorasib (NSC818433), talazoparib (NSC767125) and afursertib (NSC778305), were obtained from the National Cancer Institute (NCI) Developmental Therapeutics Program Chemical Repository. The FDA-approved anticancer drug set is available from the NCI Developmental Therapeutics Program. […] The stock solutions were prepared in dimethyl sulfoxide (DMSO, Sigma-Aldrich, St. Louis, MO, cat. D2650) at 800-fold the tested concentration and stored at -70 degrees C prior to their use. All drugs and investigational agents were tested over a range starting from a high concentration at or near the clinical Cmax and decreasing in half-log increments. If the clinical Cmax for an agent had not been determined, the highest concentration tested was 10 microM.
NCI60 Cell Culture. NCI60 cell lines were obtained from the NCI Developmental Therapeutics Program Tumor Repository. For each lot of cells, the Repository performed Applied Biosystems AmpFLSTR Identifiler testing with PCR amplification to confirm consistency with the published Identifier STR profile for each cell line. Cells were kept in continuous culture for no more than 20 passages. The optimal seeding densities for each of the cell lines at each time point assessed were determined prior to performing the concentration response studies. Briefly, the NCI60 human tumor lines were grown as monolayers in RPMI 1640 medium supplemented with 10% FBS and 2 mmol/L L-glutamine.
An additional 9 lines were from the NCI60 cell line panel including MDA-MB-231 breast carcinoma, MDA-MB-468 breast carcinoma, MCF7 breast carcinoma, Hs578T breast carcinoma, MALME-3M melanoma, SK-MEL-2 melanoma, SK-OV-3 ovarian carcinoma, DU-145 prostate carcinoma, PC-3 prostate carcinoma, all cell lines along with major genetic alterations are listed on Table 2. Pooled donor human umbilical vein endothelial cells (HUVEC, Lonza, cat. CC-2519) and human mesenchymal stem cells (hMSC, Lonza, cat. PT-2501) were purchased from Lonza (Walkersville, MD).
PDMR cell lines were grown in complete medium (DC medium): Dulbecco's modified Eagle's medium (DMEM)/F12 supplemented with 5% fetal bovine serum (FBS), 2 mM L-glutamine, 100 U/mL penicillin and 100 µg/ml streptomycin, 0.4 µg/ml hydrocortisone, 10 ng/ml epidermal growth factor (EGF) recombinant human protein, 24 µg/mL adenine, and 0.1 mg/mL primocin. During culture from frozen stock vials, PDMR cells were cultured in the same medium containing 10 µM Y-27632 (see Table 3). The PDCs were cultured in complete DMEM/F12 media without 10 microM Y-27632 dihydrochloride for at least two passages prior to the screen. The pooled donor HUVEC and hMSC were cultured in endothelial cell growth medium 2 (PromoCell, Heidelberg, Germany, cat. C-22011) and mesenchymal stem cell growth medium 2 (PromoCell, cat. C-28009), respectively. For all experiments, HUVEC and hMSC were used at passages </=5.
[…]
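Also: spheroids exposed to compounds for 7 days before readout.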

Compound `CC(=O)c1c(C)c2cnc(Nc3ccc(N4CCNCC4)cn3)nc2n(C2CCCC2)c1=O` + CCN1CCN(Cc2ccc(Nc3ncc(F)c(-c4cc(F)c5nc(C)n(C(C)C)c5c4)n3)nc2)CC1 has an IC50 (second compound 0.01 µM) of over 0.3 µM, an IC50 (second compound 0.0316 µM) of over 0.3 µM and an IC50 (second compound 0.1 µM) of over 0.3 µM. The IC50 (second compound 0.316 µM) was over 0.3 µM, the IC50 (second compound 1 µM) was over 0.3 µM and the viability, T/C (second compound 0.01 µM, first compound 0.000949 µM) was 99.9%. It also gave a viability, T/C (second compound 0.01 µM, first compound 0.003 µM) of 106%, a viability, T/C (second compound 0.01 µM, first compound 0.00949 µM) of 117% and a viability, T/C (second compound 0.01 µM, first compound 0.03 µM) of 100%. For the same compound, the viability, T/C (second compound 0.01 µM, first compound 0.0949 µM) was 82.7%, the viability, T/C (second compound 0.01 µM, first compound 0.3 µM) was 88.3% and the viability, T/C (second compound 0.0316 µM, first compound 0.000949 µM) was 76.2%. It also gave a viability, T/C (second compound 0.0316 µM, first compound 0.003 µM) of 93.2%, a viability, T/C (second compound 0.0316 µM, first compound 0.00949 µM) of 101% and a viability, T/C (second compound 0.0316 µM, first compound 0.03 µM) of 91.3%. For the same compound, the viability, T/C (second compound 0.0316 µM, first compound 0.0949 µM) was 92.2%, the viability, T/C (second compound 0.0316 µM, first compound 0.3 µM) was 76.1% and the viability, T/C (second compound 0.1 µM, first compound 0.000949 µM) was 81.7%. It also gave a viability, T/C (second compound 0.1 µM, first compound 0.003 µM) of 84.4%, a viability, T/C (second compound 0.1 µM, first compound 0.00949 µM) of 82% and a viability, T/C (second compound 0.1 µM, first compound 0.03 µM) of 87.3%. For the same compound, the viability, T/C (second compound 0.1 µM, first compound 0.0949 µM) was 80.2%, the viability, T/C (second compound 0.1 µM, first compound 0.3 µM) was 89.1% and the viability, T/C (second compound 0.316 µM, first compound 0.000949 µM) was 89.5%. The viability, T/C (second compound 0.316 µM, first compound 0.003 µM) was 84.4%, the viability, T/C (second compound 0.316 µM, first compound 0.00949 µM) was 94.6% and the viability, T/C (second compound 0.316 µM, first compound 0.03 µM) was 68.8%. It also gave a viability, T/C (second compound 0.316 µM, first compound 0.0949 µM) of 81.3%, a viability, T/C (second compound 0.316 µM, first compound 0.3 µM) of 64% and a viability, T/C (second compound 1 µM, first compound 0.000949 µM) of 49.9%. It also gave a viability, T/C (second compound 1 µM, first compound 0.003 µM) of 57.8%, a viability, T/C (second compound 1 µM, first compound 0.00949 µM) of 46.6% and a viability, T/C (second compound 1 µM, first compound 0.03 µM) of 55%. The viability, T/C (second compound 1 µM, first compound 0.0949 µM) was 49.8% and the viability, T/C (second compound 1 µM, first compound 0.3 µM) was 54%.
Work on `CCCS(=O)(=O)Nc1ccc(F)c(C(=O)c2c[nH]c3ncc(-c4ccc(Cl)cc4)cc23)c1F` + CCN1CCN(Cc2ccc(Nc3ncc(F)c(-c4cc(F)c5nc(C)n(C(C)C)c5c4)n3)nc2)CC1 yielded an IC50 (second compound 0.01 µM) of over 10 µM, an IC50 (second compound 0.0316 µM) of over 10 µM and an IC50 (second compound 0.1 µM) of over 10 µM. For the same compound, the IC50 (second compound 0.316 µM) was over 10 µM, the IC50 (second compound 1 µM) was over 10 µM and the viability, T/C (second compound 0.01 µM, first compound 0.0316 µM) was 114%. The viability, T/C (second compound 0.01 µM, first compound 0.1 µM) was 106%, the viability, T/C (second compound 0.01 µM, first compound 0.316 µM) was 123% and the viability, T/C (second compound 0.01 µM, first compound 1 µM) was 116%. For the same compound, the viability, T/C (second compound 0.01 µM, first compound 3.16 µM) was 129%, the viability, T/C (second compound 0.01 µM, first compound 10 µM) was 71.9% and the viability, T/C (second compound 0.0316 µM, first compound 0.0316 µM) was 99%. It also gave a viability, T/C (second compound 0.0316 µM, first compound 0.1 µM) of 97.2%, a viability, T/C (second compound 0.0316 µM, first compound 0.316 µM) of 109% and a viability, T/C (second compound 0.0316 µM, first compound 1 µM) of 104%. For the same compound, the viability, T/C (second compound 0.0316 µM, first compound 3.16 µM) was 110%, the viability, T/C (second compound 0.0316 µM, first compound 10 µM) was 60.9% and the viability, T/C (second compound 0.1 µM, first compound 0.0316 µM) was 128%. It also gave a viability, T/C (second compound 0.1 µM, first compound 0.1 µM) of 113%, a viability, T/C (second compound 0.1 µM, first compound 0.316 µM) of 123% and a viability, T/C (second compound 0.1 µM, first compound 1 µM) of 104%. For the same compound, the viability, T/C (second compound 0.1 µM, first compound 3.16 µM) was 100%, the viability, T/C (second compound 0.1 µM, first compound 10 µM) was 61% and the viability, T/C (second compound 0.316 µM, first compound 0.0316 µM) was 105%. For the same compound, the viability, T/C (second compound 0.316 µM, first compound 0.1 µM) was 98.4%, the viability, T/C (second compound 0.316 µM, first compound 0.316 µM) was 99.1% and the viability, T/C (second compound 0.316 µM, first compound 1 µM) was 93.9%. It also gave a viability, T/C (second compound 0.316 µM, first compound 3.16 µM) of 77.6%, a viability, T/C (second compound 0.316 µM, first compound 10 µM) of 57.6% and a viability, T/C (second compound 1 µM, first compound 0.0316 µM) of 67.7%. It also gave a viability, T/C (second compound 1 µM, first compound 0.1 µM) of 54.9%, a viability, T/C (second compound 1 µM, first compound 0.316 µM) of 73.1% and a viability, T/C (second compound 1 µM, first compound 1 µM) of 61%. The viability, T/C (second compound 1 µM, first compound 3.16 µM) was 57.2% and the viability, T/C (second compound 1 µM, first compound 10 µM) was 59.8%.
